Patent US20140037642A1, “METHODS AND COMPOSITIONS RELATING TO INHIBITION OF IGF-1R” (AMGEN INC., priority 2011, published 2014)

Columns and labels:
[1] = target: IGF-1R (Homo sapiens, UniProt P08069); details: biphasic binding; read-out: KD of high affinity binding to IGF-1R; cited from earlier work
[2] = tested on: metastatic pancreatic cancer patients; assay: Placebo-controlled, randomized phase 2 study plus gemcitabine; format: in vivo, human
Description: The primary endpoint was six month overall survival rate.
Key inclusion criteria were histologically or cytologically documented metastatic adenocarcinoma of the pancreas, age eighteen years or older, ECOG PS 0 or 1, adequate hematologic, hepatic, renal, and coagulation function, amylase and lipase≦2.0×ULN, adequately controlled type 1 or 2 diabetes (amended during protocol to fasting blood glucose<[…] only), fasting blood glucose≦[…], HbAlc<8%, and written informed consent.
Key exclusion criteria were uncontrolled cardiac disease and prior chemotherapy or radiation in the adjuvant or metastatic setting.

[3] = tested on: metastatic pancreatic cancer patients; assay: Overall survival in baseline circulating biomarker subgroups of the phase 2 study; format: in vivo, human; design: Median OS: unit not given here
Excerpt: To establish the relationship between levels of these baseline markers and overall survival, a Cox proportional hazard model was used to calculate hazard ratios (HR) using normalized log transformed marker concentrations. This analysis tests the risk of death associated with a unit increase in the normalized log baseline biomarker and this risk is expressed as a hazard ratio. Because of the small sample size, it is difficult to dissect prognostic associations from relationships that are modified by treatment with ganitumab relative to placebo, i.e., predictive. This is because the addition of treatment effect adds a variable to the analysis that compromises the power of the test masking significant predictive relationships that may exist. However even a prognostic relationship identified in this analysis is important because it informs the hypothesized relationship between circulating bioavailable ligands and the adaptation of the tumor to IGF-1R dependent progression, and in turn sensitivity to inhibitors that block IGF-1R or downstream signaling pathways.
This allows a direct test of the predictive value of using these markers in a dichotomized way to predict OS in pancreatic cancer patients that are treated with inhibitors of IGF-1R.
To represent these relationships Kaplan-Maier plots were generated that show the OS for the high and low subgroups by plotting the fraction of patients in each sub-group that survive against time.

[4] = patients with measurable disease at baseline, plus gemcitabine
[5] = plus gemcitabine, conatumumab 10 mg/kg Q2W or ganitumab 12 mg/kg Q2W
[6] = plus gemcitabine, conatumumab 10 mg/kg Q2W or ganitumab 12 mg/kg Q2W, listed as conatumumab
[7] = versus placebo plus gemcitabine

**Q.** For “IGF-2: insulin-like growth factor, ligand of IGF-1R”, which Kd [1] is on record?
**A.** The Kd was ~0.2 nM.

**Q.** For “Conatumumab: conatumumab (AMG 655), amino acid sequences in FIG. 19; given with gemcitabine in the phase 2 study”, which “Best Overall Response: Confirmed CR - n (%)” value [2, 4] is on record?
**A.** The value was 0 (0) n (%).

**Q.** And the “Best Overall Response: Confirmed PR - n (%)” value [2, 4]?
**A.** The value was 1 (3) n (%).

**Q.** And the “Best Overall Response: PD - n (%)” value [2, 4]?
**A.** The value was 12 (32) n (%).

**Q.** And the “Best Overall Response: SD (Includes Unconfirmed PR) - n (%)” value [2, 4]?
**A.** The value was 22 (58) n (%).

**Q.** What about the “Best Overall Response: Unconfirmed PR - n (%)” value [2, 4] of the same substance?
**A.** The value was 2 (5) n (%).

**Q.** And the “Best Overall Response: Unknown - n (%)” value [2, 4]?
**A.** The value was 3 (8) n (%).

**Q.** And the “Abdominal pain, grade 3-5” value ([2]; plus gemcitabine)?
**A.** Its value is 7 (17) n (%).

**Q.** And the “Anemia, grade 3-5” value ([2]; plus gemcitabine)?
**A.** Its value is 4 (10) n (%).

**Q.** And the “Aspartate Aminotransferase Increased, grade 3-5” value ([2]; plus gemcitabine)?
**A.** Its value is 3 (7) n (%).

**Q.** And the “Deep Vein Thrombosis, grade 3-5” value ([2]; plus gemcitabine)?
**A.** The value was 4 (10) n (%).

**Q.** What about the “Fatigue, grade 3-5” value ([2]; plus gemcitabine) of the same substance?
**A.** Its value is 5 (12) n (%).

**Q.** What about the “Hyperbilirubinemia, grade 3-5” value ([2]; plus gemcitabine) of the same substance?
**A.** The value was 2 (5) n (%).

**Q.** What about the “Hyperglycemia, grade 3-5” value ([2]; plus gemcitabine) of the same substance?
**A.** Its value is 1 (2) n (%).

**Q.** And the “Hypotension, grade 3-5” value ([2]; plus gemcitabine)?
**A.** Its value is 3 (7) n (%).

**Q.** What about the “Neutropenia, grade 3-5” value ([2]; plus gemcitabine) of the same substance?
**A.** Its value is 9 (22) n (%).

**Q.** And the “Pulmonary Embolism, grade 3-5” value ([2]; plus gemcitabine)?
**A.** Its value is 1 (2) n (%).

**Q.** And the “Thrombocytopenia, grade 3-5” value ([2]; plus gemcitabine)?
**A.** The value was 7 (17) n (%).

**Q.** And the “rate of SD+PR” value ([2]; plus gemcitabine)?
**A.** The value was 61%.

**Q.** What about the “6-Month OS Rate (95% CI)” value [2, 5] of the same substance?
**A.** Its value is 59% (42, 73).

**Q.** And the “12-Month OS Rate (95% CI)” value [2, 5]?
**A.** Its value is 20% (9, 34).

**Q.** What about the “Median OS, Months (95% CI)” value [2, 5] of the same substance?
**A.** Its value is 7.5 (4.8, 10.0) Months.

**Q.** And the “Median PFS, Months (95% CI)” value [2, 5]?
**A.** The value was 4.0 (3.3, 5.0) Months.

**Q.** What about the “6-Month OS Rate (95% CI)” value [2, 6] of the same substance?
**A.** The value was 59%.

**Q.** And the “Median PFS, Months (95% CI)” value [2, 6]?
**A.** The value was 4.0 Months.

**Q.** What about the “Number of Patients Reporting ≧1 AE, grade 3-5” value ([2]; plus gemcitabine, conatumumab N = 41, ganitumab N = 40) of the same substance?
**A.** The value was 36 (88) n (%).

**Q.** And the “Stratified HR (95% CI), OS” value [2, 7]?
**A.** The value was 0.87 (0.53, 1.43).

**Q.** And the “Stratified HR (95% CI), PFS” value [2, 7]?
**A.** Its value is 0.65 (0.41, 1.05).

**Q.** What about the “Stratified HR (95% CI), PFS” value ([2]; versus placebo plus gemcitabine, listed as conatumumab) of the same substance?
**A.** Its value is 0.65.

**Q.** What about the “Median OS” value ([3]; IGF-2 High (>=median)) of the same substance?
**A.** The value was 214.

**Q.** What about the “OS HR, treatment vs placebo” value ([3]; IGF-2 High (>=median)) of the same substance?
**A.** The value was 0.56.

**Q.** What about the “Median OS” value ([3]; IGF-2 Low (<median)) of the same substance?
**A.** Its value is 263.

**Q.** And the “OS HR, treatment vs placebo” value ([3]; IGF-2 Low (<median))?
**A.** The value was 1.08.

**Q.** What about the “Median OS” value ([3]; IGF-BP1 High (>=median)) of the same substance?
**A.** The value was 178.

**Q.** What about the “OS HR, treatment vs placebo” value ([3]; IGF-BP1 High (>=median)) of the same substance?
**A.** The value was 0.77.

**Q.** What about the “Median OS” value ([3]; IGF-BP1 Low (<median)) of the same substance?
**A.** The value was 254.

**Q.** And the “OS HR, treatment vs placebo” value ([3]; IGF-BP1 Low (<median))?
**A.** Its value is 0.68.

**Q.** What about the “Median OS” value ([3]; IGF-BP2 High (>=median)) of the same substance?
**A.** Its value is 178.

**Q.** What about the “OS HR, treatment vs placebo” value ([3]; IGF-BP2 High (>=median)) of the same substance?
**A.** Its value is 0.69.

**Q.** What about the “Median OS” value ([3]; IGF-BP2 Low (<median)) of the same substance?
**A.** The value was 244.

**Q.** And the “OS HR, treatment vs placebo” value ([3]; IGF-BP2 Low (<median))?
**A.** The value was 0.91.

**Q.** What about the “Median OS” value ([3]; IGF-BP3 High (>=median)) of the same substance?
**A.** Its value is 244.

**Q.** And the “OS HR, treatment vs placebo” value ([3]; IGF-BP3 High (>=median))?
**A.** Its value is 0.77.

**Q.** And the “Median OS” value ([3]; IGF-BP3 Low (<median))?
**A.** Its value is 129.

**Q.** And the “OS HR, treatment vs placebo” value ([3]; IGF-BP3 Low (<median))?
**A.** The value was 0.86.

**Q.** And the “Median OS” value ([3]; IGF-BP4 High (>=median))?
**A.** Its value is 216.

**Q.** And the “OS HR, treatment vs placebo” value ([3]; IGF-BP4 High (>=median))?
**A.** Its value is 0.97.

**Q.** What about the “Median OS” value ([3]; IGF-BP4 Low (<median)) of the same substance?
**A.** The value was 216.

**Q.** And the “OS HR, treatment vs placebo” value ([3]; IGF-BP4 Low (<median))?
**A.** The value was 0.86.

**Q.** And the “Median OS” value ([3]; Total IGF-1 High (>=median))?
**A.** The value was 231.

**Q.** And the “OS HR, treatment vs placebo” value ([3]; Total IGF-1 High (>=median))?
**A.** The value was 0.56.

**Q.** What about the “Median OS” value ([3]; Total IGF-1 Low (<median)) of the same substance?
**A.** The value was 178.

**Q.** And the “OS HR, treatment vs placebo” value ([3]; Total IGF-1 Low (<median))?
**A.** The value was 0.53.
